Source: patent US20040101576A1, “IMMUNOPOTENTIATORS” (priority 1997, published 2004)

Test system: Langerhans' cells
Conditions: antigen (trinitrobenzenesulfonic acid, 1 mg/ml) added, Langerhans' cells UV irradiated, 3 mM glutathione added during irradiation; antigen only 17,500, antigen + UV 5,000 (FIG. 1)
Description: An antigen (trinitrobenzenesulfonic acid, 1 mg/ml) was added to Langerhans' cells and, after cleaning, they were mixed and cultured with T cells obtained by purifying lymph gland cell floating fluid with a nylon fiber column (Wako).

Structure (SMILES): N[C@@H](CCC(=O)N[C@@H](CS)C(=O)NCC(=O)O)C(=O)O [glutathione]
- multiplication of the T cells: 11,000
